Assay results from patent US8119633B2, “Substituted sulfonamide compounds” (Gruenenthal GmbH, priority 2007, dated 2012).

Key:
[1] = molecular target: T1, bradykinin receptor 1 (B1R) of the rat (Rattus norvegicus, UniProt P97583); assay: Functional study on the bradykinin receptor 1 (B1R), rat: FLIPR Ca2+ influx assay; assay type: cell-based; conditions: test substance 10 μM; CHO K1 cells transfected with rat B1R; Des-Arg9-bradykinin at EC80; Ca2+ influx (Fluo-4, FLIPR); read-out: B1R antagonism, rat [10 μM] % inhibition
T1 construct: expressed in transfected cells; host or cells: CHO K1 cells
T1 sequence (P97583 1-337): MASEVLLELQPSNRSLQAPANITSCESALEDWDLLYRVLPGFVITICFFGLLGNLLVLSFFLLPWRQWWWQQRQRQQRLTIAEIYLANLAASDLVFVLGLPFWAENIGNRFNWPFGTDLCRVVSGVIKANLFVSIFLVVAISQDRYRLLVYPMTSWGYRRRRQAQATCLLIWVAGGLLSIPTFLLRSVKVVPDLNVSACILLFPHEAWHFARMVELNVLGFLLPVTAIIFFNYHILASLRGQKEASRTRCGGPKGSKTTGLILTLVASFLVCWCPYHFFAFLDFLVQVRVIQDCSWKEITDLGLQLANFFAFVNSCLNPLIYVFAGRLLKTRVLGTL
Procedure, shortened: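 CHO K1 cells stably expressing rat B1R, Fluo-4-loaded, read on FLIPR (ex 488/em 540 nm, peak fluorescence). Test substances added first (agonism vs 10 μM Des-Arg9-bradykinin), then after 10-20 min Des-Arg9-bradykinin at EC80; % inhibition and IC50 from concentration series, n=2-3, N≥2.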

[2] = molecular target: T2, human bradykinin receptor 1 (B1R) (Homo sapiens, UniProt P46663); assay: Functional study on the bradykinin receptor 1 (B1R), human: FLIPR Ca2+ influx assay; assay type: cell-based; conditions: test substance 10 μM; CHO K1 cells transfected with human B1R; Lys-Des-Arg9-bradykinin at EC80; Ca2+ influx (Fluo-4, FLIPR); read-out: B1R antagonism, human [10 μM] % inhibition
T2 construct: expressed in transfected cells; host or cells: CHO K1 cells
T2 sequence (P46663 1-353): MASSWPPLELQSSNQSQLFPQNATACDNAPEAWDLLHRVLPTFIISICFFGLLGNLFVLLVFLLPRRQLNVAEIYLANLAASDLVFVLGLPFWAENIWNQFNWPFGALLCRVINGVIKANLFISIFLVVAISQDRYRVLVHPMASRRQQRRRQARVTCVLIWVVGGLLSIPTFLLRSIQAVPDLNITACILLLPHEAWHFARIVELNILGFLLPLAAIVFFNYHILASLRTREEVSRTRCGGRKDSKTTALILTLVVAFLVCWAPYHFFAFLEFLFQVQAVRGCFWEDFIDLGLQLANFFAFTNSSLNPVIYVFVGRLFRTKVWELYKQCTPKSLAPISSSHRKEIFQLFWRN
Procedure, shortened: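 CHO K1 cells stably expressing human B1R were loaded with Fluo-4, and Ca2+ fluorescence was read on FLIPR (ex 488/em 540 nm). Compound was added first (10 μM for % activation against Lys-Des-Arg9-bradykinin ≥0.5 nM). After 10-20 min, Lys-Des-Arg9-bradykinin was added at EC80 for % inhibition; IC50 came from concentration series, n=2-3, N≥2.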

human μ-opiate receptor = molecular target: T3, human μ-opiate receptor (Homo sapiens, UniProt P35372); assay: Affinity for the human μ-opiate receptor ([3H]-naloxone displacement, SPA); conditions: test substance 1 μmol/l; inhibition of specific [3H]-naloxone binding; CHO-K1 receptor membrane preparation; read-out: μ-Opioid receptor [1 μM] % inhibition
T3 construct: purchased PerkinElmer Life Sciences, Zaventem, Belgium RB-HOM; host or cells: CHO-K1 cells (membrane preparation)
T3 sequence (P35372 whole entry): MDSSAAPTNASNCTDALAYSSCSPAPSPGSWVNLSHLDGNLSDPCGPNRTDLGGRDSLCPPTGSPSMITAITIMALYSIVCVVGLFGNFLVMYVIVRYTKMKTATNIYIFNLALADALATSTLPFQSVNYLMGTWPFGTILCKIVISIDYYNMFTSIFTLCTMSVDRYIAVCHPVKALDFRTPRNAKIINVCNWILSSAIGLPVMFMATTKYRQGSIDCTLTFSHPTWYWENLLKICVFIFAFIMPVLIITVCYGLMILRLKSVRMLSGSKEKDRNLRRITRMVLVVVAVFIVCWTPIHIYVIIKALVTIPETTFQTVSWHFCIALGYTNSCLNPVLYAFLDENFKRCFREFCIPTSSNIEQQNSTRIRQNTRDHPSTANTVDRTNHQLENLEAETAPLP
Procedure, shortened: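 Membranes from CHO-K1 cells expressing human μ-opiate receptor were incubated 90 min at room temperature with 1 nmol/l [3H]-naloxone and WGA-SPA beads in 50 mmol/l Tris-HCl with 0.06% BSA; non-specific binding was defined with 100 μmol/l naloxone. Percent inhibition was measured at 1 μmol/l, IC50 was derived from concentration series, and Ki was obtained by Cheng-Prusoff.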

Row | SMILES | inhibition at 10 µM [1] | inhibition at 10 µM [2] | inhibition at 1 µM (human μ-opiate receptor)
1 | O=C(CC1CCCCN1S(=O)(=O)c1ccc(Cl)c(Cl)c1)NCC1CCC(C(CCc2ccccc2)N2CCOCC2)CC1 (stereo not drawn) [Example 83, 2-[1-(3,4-dichloro-benzenesulfonyl)-piperidin-2-yl]-N-[4-(1-morpholin-4-yl-3-phenyl-propyl)-cyclohexylmethyl]-acetamide] | -3% | 37% | 22%
2 | O=C(CC1CCCCN1S(=O)(=O)c1ccc(Cl)c(Cl)c1)NCC1CCC(C(CCc2ccccc2)N2CCCC2)CC1 (stereo not drawn) [Example 84, 2-[1-(3,4-dichloro-benzenesulfonyl)-piperidin-2-yl]-N-[4-(3-phenyl-1-pyrrolidin-1-yl-propyl)-cyclohexylmethyl]-acetamide] | 19% | 95.4% | 90%
3 | O=C(CC1CCCCN1S(=O)(=O)c1ccc(Cl)c(Cl)c1)NCC1CCC(C(c2ccccc2)N2CCCC2)CC1 (stereo not drawn) [Example 85, 2-[1-(3,4-dichloro-benzenesulfonyl)-piperidin-2-yl]-N-[4-(phenyl-pyrrolidin-1-ylmethyl)-cyclohexylmethyl]-acetamide] | 22% | 92.7% | 95%
4 | O=C(CC1CCCCN1S(=O)(=O)c1ccc(Cl)c(Cl)c1)NC1CCC(C(CCc2ccccc2)N2CCCCC2)CC1 (stereo not drawn) [Example 86, 2-[1-(3,4-dichloro-benzenesulfonyl)-piperidin-2-yl]-N-[4-(3-phenyl-1-piperidin-1-yl-propyl)-cyclohexyl]-acetamide] | 30% | 101% | 54%
5 | O=C(CC1CCCCN1S(=O)(=O)c1ccc(Cl)c(Cl)c1)NC1CCC(C(CCc2ccccc2)N2CCOCC2)CC1 (stereo not drawn) [Example 87, 2-[1-(3,4-dichloro-benzenesulfonyl)-piperidin-2-yl]-N-[4-(1-morpholin-4-yl-3-phenyl-propyl)-cyclohexyl]-acetamide] | 25% | 96.8% | 38%
6 | CN1CCN(C(c2ccccc2)C2CCC(NC(=O)CC3CCCCN3S(=O)(=O)c3ccc(Cl)c(Cl)c3)CC2)CC1 (stereo not drawn) [Example 88, 2-[1-(3,4-dichloro-benzenesulfonyl)-piperidin-2-yl]-N-{4-[(4-methyl-piperazin-1-yl)-phenyl-methyl]-cyclohexyl}-acetamide] | 61% | 101% | 58%
7 | O=C(CC1CCCCN1S(=O)(=O)c1ccc(Cl)c(Cl)c1)N1CCC(C(c2ccccc2)N2CCOCC2)CC1 (stereo not drawn) [Example 89, 2-[1-(3,4-dichloro-benzenesulfonyl)-piperidin-2-yl]-1-[4-(morpholin-4-yl-phenylmethyl)-piperidin-1-yl]-ethanone] | 26% | 16.4% | 8.5%
8 | O=C(CC1CCCCN1S(=O)(=O)c1ccc(Cl)c(Cl)c1)N1CCC(C(Cc2ccccc2)N2CCOCC2)CC1 (stereo not drawn) [Example 90, 2-(1-(3,4-dichlorophenylsulfonyl)piperidin-2-yl)-1-(4-(1-morpholino-2-phenylethyl)piperidin-1-yl)ethanone] | 17% | 14.4% | 12%
9 | O=C(CC1C(=O)NCCN1S(=O)(=O)c1ccc(Cl)cc1Cl)NC1CCC(C(c2ccccc2)N2CCOCC2)CC1 (stereo not drawn) [Example 101, 2-(1-(2,4-dichlorophenylsulfonyl)-3-oxopiperazin-2-yl)-N-(4-(morpholino(phenyl)methyl)cyclohexyl)acetamide] | 31% | 104% | 4%
10 | O=C(CC1C(=O)NCCN1S(=O)(=O)c1ccc(Cl)cc1Cl)NC1CCC(C(c2ccccc2)N2CCCC2)CC1 (stereo not drawn) [Example 102, 2-(1-(2,4-dichlorophenylsulfonyl)-3-oxopiperazin-2-yl)-N-(4-(phenyl(pyrrolidin-1-yl)methyl)cyclohexyl)acetamide] | 12% | 104% | 35%
11 | O=C(CC1C(=O)Nc2ccccc2N1S(=O)(=O)c1ccc(Cl)c(Cl)c1)NC1CCC(C(c2ccccc2)N2CCCC2)CC1 (stereo not drawn) [Example 103, 2-(1-(3,4-dichlorophenylsulfonyl)-3-oxo-1,2,3,4-tetrahydroquinoxalin-2-yl)-N-(4-(phenyl(pyrrolidin-1-yl)methyl)cyclohexyl)acetamide] | 37% | 103% | 71%
12 | O=C(CC1CCCN1S(=O)(=O)c1ccc(Cl)c(Cl)c1)NC1CCC(C(c2ccccc2)N2CCOCC2)CC1 (stereo not drawn) [Example 104, 2-(1-(3,4-dichlorophenylsulfonyl)pyrrolidin-2-yl)-N-(4-(morpholino(phenyl)methyl)cyclohexyl)acetamide] | 13% | 32.8% | 11%
13 | O=C(CC1CCCN1S(=O)(=O)c1ccc(Cl)c(Cl)c1)NC1CCC(C(c2ccccc2)N2CCCC2)CC1 (stereo not drawn) [Example 105, 2-(1-(3,4-dichlorophenylsulfonyl)pyrrolidin-2-yl)-N-(4-(phenyl(pyrrolidin-1-yl)methyl)cyclohexyl)acetamide] | 24% | 99.5% | 76%
14 | O=C(CC1CCCCN1S(=O)(=O)c1ccc(Cl)c(Cl)c1)NC1CCC(C(c2ccccc2)N2CCOCC2)CC1 (stereo not drawn) [Example 106, 2-(1-(3,4-dichlorophenylsulfonyl)piperidin-2-yl)-N-(4-(morpholino(phenyl)methyl)cyclohexyl)acetamide] | 19% | 48.3% | 21%
15 | O=C(CC1CCCCN1S(=O)(=O)c1ccc(Cl)c(Cl)c1)NC1CCC(C(c2ccccc2)N2CCCC2)CC1 (stereo not drawn) [Example 107, 2-(1-(3,4-dichlorophenylsulfonyl)piperidin-2-yl)-N-(4-(phenyl(pyrrolidin-1-yl)methyl)cyclohexyl)acetamide] | 26% | 102% | 78%
16 | CN1CCN(C(c2ccccc2)C2CCN(C(=O)CC3CCCCN3S(=O)(=O)c3cccc(C(F)(F)F)c3)CC2)CC1 (stereo not drawn) [Example 108, 1-(4-((4-methylpiperazin-1-yl)(phenyl)methyl)piperidin-1-yl)-2-(1-(3-(trifluoromethyl)phenylsulfonyl)piperidin-2-yl)ethanone] | 78% | 97% | 6%
17 | CN1CCN(C(c2ccc(F)cc2)C2CCN(C(=O)CC3CCCCN3S(=O)(=O)c3cccc(C(F)(F)F)c3)CC2)CC1 (stereo not drawn) [Example 109, 1-(4-((4-fluorophenyl)(4-methylpiperazin-1-yl)methyl)piperidin-1-yl)-2-(1-(3-(trifluoromethyl)phenylsulfonyl)piperidin-2-yl)ethanone] | 99% | 102% | 5%
18 | CN1CCN(C(c2cccc(F)c2)C2CCN(C(=O)CC(NS(=O)(=O)c3ccc4ccccc4c3)c3ccccc3)CC2)CC1 (stereo not drawn) [Example 110, N-(3-(4-((3-fluorophenyl)(4-methylpiperazin-1-yl)methyl)piperidin-1-yl)-3-oxo-1-phenylpropyl)naphthalene-2-sulfonamide] | 100% | 102% | 3%
19 | CN1CCN(C(Cc2ccccc2)C2CCN(C(=O)CC3CCCCN3S(=O)(=O)c3cccc(C(F)(F)F)c3)CC2)CC1 (stereo not drawn) [Example 111, 1-(4-(1-(4-methylpiperazin-1-yl)-2-phenylethyl)piperidin-1-yl)-2-(1-(3-(trifluoromethyl)phenylsulfonyl)piperidin-2-yl)ethanone] | 61% | 94% | -2%
